Assay results reported in patent US20100189798A1, “CONTROL OF ERWINIA AMYLOVORA WITH VINYLGLYCINES AND BACTERIA THAT PRODUCE VINYLGLYCINES” (The State of Oregon acting by and through the State Board …, priority 2009, published 2010).

Tests used:
Erwinia amylovora = assay: Erwinia bioassay: culture filtrates or test solutions in agar well, zone of inhibition; assay type: cell-based; settings: 300 μL per well, 28° C., 48 hours
Protocol: Assays of Culture Filtrates, Live Bacteria, and FVG-Analogs for Antibiosis Activity against Erwinia amylovora and Other Bacterial Species and Strains: The potential antibiosis activities of various P. fluorescens isolates, their culture filtrates, and the FVG analogs prepared as described above were tested against Erwinia amylovora and a number of other bacterial species and strains listed in Table 4. For this purpose, cryovial stocks of the test organisms (including P. fluorescens lines from the stocks described above) were prepared from bacterial cultures grown in LB liquid medium. For this specific experimental purpose, aliquots of these cultures were stored in cryovials at −80° C. in LB medium containing glycerol at a final concentration of 15% (v/v).
Bacterial lawns of test organisms were prepared from cells grown by inoculating 10 μL of the 15% glycerol stocks into 5 mL of liquid LB Medium. The cells were allowed to multiply overnight at 28° C. with shaking (200 rpm). The resulting bacterial suspension was adjusted with water to an optical density of 0.2 at 600 nm (Spectronic® 20 Spectrophotometer; Milton Roy Co., Rochester N.Y.). 300 μL aliquots of the diluted suspension were spread onto the agar surfaces of Petri plates (100×15 mm) containing […] of 925 Minimal Medium (prepared and amended as described below). […]

seeds of grassy weeds = settings: as disclosed in U.S. patent application Ser. No. 12/567,590; cited from earlier work
[1] = as described in U.S. patent application Ser. No. 12/567,590; cited from earlier work

SMILES: NOCC(=O)O [AOA, 2-aminooxyacetic acid]
- Growth inhibition of E. amylovora (in words) (Erwinia amylovora; AOA solution, pH 6.4): effective growth inhibitor

SMILES: NCCOC=CC(N)C(=O)O (stereo not shown) [AVG, 2-amino-4-aminoethoxybut-3-enoic acid]
- Inhibitory effect on growth of E. amylovora (in words) (Erwinia amylovora; commercial sample of pure AVG-HCl, 3 mM): inhibitory effect of AVG on E. amylovora has subsequently been confirmed

SMILES: NC(C=CONC=O)C(=O)O (stereo not shown) [FVG, 2-amino-4-formylaminooxybut-3-enoic acid]
- Germination arrest in the seeds of grassy weeds (in words) (seeds of grassy weeds): ability to produce germination arrest
- Solubility in organic solvents (in words) [1]: insoluble or sparingly soluble in organic solvents
